According to ChEMBL document CHEMBL1136283, “Synthesis and glycosidase inhibitory activity of some N-substituted 6-deoxy-5a-carba-beta-DL- and L-galactopyranosylamines” (Bioorg Med Chem Lett, 2003):

Key:
[1] = Inhibitory activity against beta-glucosidase in almond; parameters: species or system Prunus dulcis
[2] = biological target: T1, Beta-galactosidase (Bos taurus, UniProt Q58D55); test: Inhibitory activity against beta-galactosidase in bovine liver; format: tissue-based
T1 sequence (Q58D55 whole entry): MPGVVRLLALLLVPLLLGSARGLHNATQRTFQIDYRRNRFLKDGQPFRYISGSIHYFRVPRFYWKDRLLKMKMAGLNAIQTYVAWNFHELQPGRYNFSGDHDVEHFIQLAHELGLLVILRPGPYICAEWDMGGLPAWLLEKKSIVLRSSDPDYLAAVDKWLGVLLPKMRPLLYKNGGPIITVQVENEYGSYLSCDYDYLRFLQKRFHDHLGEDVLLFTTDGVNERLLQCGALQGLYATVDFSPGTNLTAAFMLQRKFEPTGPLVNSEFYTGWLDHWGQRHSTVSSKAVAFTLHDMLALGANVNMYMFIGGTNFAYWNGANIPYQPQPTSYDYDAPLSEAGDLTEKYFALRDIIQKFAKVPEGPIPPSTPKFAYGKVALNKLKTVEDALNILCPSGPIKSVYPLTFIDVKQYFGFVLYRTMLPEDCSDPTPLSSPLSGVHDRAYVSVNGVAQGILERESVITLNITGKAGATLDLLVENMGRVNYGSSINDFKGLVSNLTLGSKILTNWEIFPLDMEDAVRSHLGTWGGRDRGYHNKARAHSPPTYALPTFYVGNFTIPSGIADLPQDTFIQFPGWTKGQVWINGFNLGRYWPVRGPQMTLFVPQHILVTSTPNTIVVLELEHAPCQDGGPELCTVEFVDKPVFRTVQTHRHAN

[3] = Inhibitory activity against beta-glucosidase in almond at pH 5.5; parameters: species or system Prunus dulcis
[4] = Inhibitory activity against beta-glucosidase in almond at pH 6.8; parameters: species or system Prunus dulcis

CCCCCCCCN[C@H]1CC(C)[C@@H](O)C(O)[C@@H]1O (stereo partly drawn)
IC50 [1]: 14700 nM | IC50 [2]: 3700 nM

CCCCCCCCNC1CC(C)C(O)C(O)C1O (stereo not drawn)
IC50 [1]: 1500 nM | Ki [1]: 3200 nM | IC50 [2]: 700 nM | Ki [2]: 110 nM

CCCCCCCCCCN[C@H]1CC(C)[C@@H](O)C(O)[C@@H]1O (stereo partly drawn)
IC50 [1]: 16600 nM | IC50 [2]: 1000 nM

CC1CC(NCCCCc2ccccc2)C(O)C(O)C1O (stereo not drawn)
IC50 [1]: 1400 nM | Ki [1]: 1200 nM | IC50 [2]: 900 nM | Ki [2]: 46 nM

CCCCCCCCCCCCN[C@H]1CC(C)[C@@H](O)C(O)[C@@H]1O (stereo partly drawn)
IC50 [1]: 3600 nM | IC50 [2]: 3000 nM

CCCCCCNC1CC(C)C(O)C(O)C1O (stereo not drawn)
IC50 [1]: 730 nM | IC50 [2]: 3700 nM

CC1C[C@H](NCCCCc2ccccc2)[C@@H](O)C(O)[C@@H]1O (stereo partly drawn)
IC50 [1]: 10200 nM | IC50 [2]: 2400 nM

C[C@@H]1CC(NCCc2ccccc2)[C@@H](O)[C@@H](O)[C@@H]1O (stereo in doubt)
IC50 [1]: 380 nM | Ki [1]: 57 nM | Ki [3]: 390 nM | IC50 [2]: 5700 nM | Ki [4]: 57 nM

CCCCCCCCCCNC1CC(C)C(O)C(O)C1O (stereo not drawn)
IC50 [1]: 2000 nM | Ki [1]: 400 nM | IC50 [2]: 200 nM | Ki [2]: 9 nM

C[C@@H]1CC(NCCc2ccccc2)[C@@H](O)[C@@H](O)[C@@H]1O (stereo in doubt; 9e (D))
Ki [4]: 110 nM
